Data: patent publication US8133881B2, “Carbohydrate conjugates to prevent abuse of controlled substances” (Shire LLC, priority 2003, dated 2012)

Experiments:
[1] = Oral bioavailability of Hydrocodone vs. Galactose-Hydrocodone
[2] = Intranasal bioavailability of Hydrocodone vs. Galactose Hydrocodone
[3] = Kitchen test stability of conjugate (release of hydrocodone on heating in pH solutions); format: physicochemical; details: for Percent Hydrocodone released: 80-90° C.
Procedure: To determine the accessibility of active narcotic from the synthetic conjugates, an attempt was made to release the narcotic from its conjugate. In a kitchen test, we determined the stability of the conjugates when subjected to conditions that would be available to any drug addict. Thus, the kitchen test is a model of “street-safeness” for the narcotics conjugates. The conjugates were heated in a water bath (80-90° C.) in a pH range (1-12) over a 1 hour time course. This pH range constitutes about any solution that can be found commercially at any grocery or drug store. The release of the narcotic from the conjugate was monitored by HPLC and quantified with a dose-response calibration curve of the parent narcotic.
Using only solutions that would be available to an addict, conjugates were dissolved in water. Water insoluble conjugates were either (a) dissolved in a minimum amount (≦5% v/v) of organic solvent [e.g., DMSO, methanol, or ethanol], (b) added as a suspension to the assay, or (c) dissolved completely in chloroform, and aliquoted to a test tube where the chloroform is evaporated, leaving only a known amount of conjugate. Upon preparation of the conjugate, the conjugate is added to the various pH solutions and heated for 0, 5, 15, or 60 minutes. At the indicated time point, each test tube was removed from the water bath and neutralized with a chilled phosphate buffer (100 mM, pH 7, 4° C.).
The kitchen test proceeds as follows: • 1. pH solutions [1, 4, 7, 9, 12] prepared with HPLC grade H2O and titrated with NaOH or HCl • 2. prepare hot water bath, keeping temperature at 80-90° C. • 3. conjugates prepared at a concentration of 1 mg/ml as indicated above • 4. 250 μl of conjugate added to 750 μl of pH solutions (final assay volume is 1 ml; if conjugate has been evaporated from CHCl3, add 1 ml of pH solution to test tube) • 5. immediately following the addition of conjugate to pH solution, place test tube in hot water bath (80-90° C.) • 6. at indicated time point, remove test tubes from heat and neutralize with 1 ml of chilled phosphate buffer [0 time point is not heated, but immediately neutralized with phosphate buffer after the addition of conjugate to each pH solution] • 7. before aliquoting each sample for HPLC analysis, the volume of each tube is adjusted to 2 ml to account for changes in concentration from evaporation
Following HPLC analysis, the amount of released narcotic was extrapolated from a calibration curve of the parent drug and plotted as % narcotic released (w/w, based upon theoretical loading of conjugated species) vs. time.

[4] = Intranasal bioavailability of Hydrocodone vs. Ribose Hydrocodone
[5] = Intravenous bioavailability of Hydrocodone vs. Ribose Hydrocodone
[6] = Oral bioavailability of Hydrocodone vs. Ribose-Hydrocodone (serum levels)

Structure (SMILES): COc1ccc2c3c1OC1C(OC(=O)OC[C@H]4O[C@H](O)[C@H](O)[C@@H](O)[C@H]4O)=CCC4[C@@H](C2)[N@@H+](C)CC[C@]314.[Cl-] (some centres unmarked) [Galactose-Hydrocodone, Galacto-Hydrocodone]
- Bioavailability compared to Hydrocodone-Bitartarate [1]: approached that of Hydrocodone-Bitaratarate
- Bioavailability compared to Hydrocodone-Bitartarate [2]: marginally decreased

Structure (SMILES): COc1ccc2c3c1OC1C(OC(=O)OC[C@H]4OC(O)C(O)[C@H]4O)=CCC4[C@@H](C2)[N@@H+](C)CC[C@]314.[Cl-] (some centres unmarked) [Ribose-Hydrocodone, Ribo-Hydrocodone]
- Percent Hydrocodone released ([3]; pH 1, 5 minutes, relative to zero hour level of free Hydrocodone): 8%
- Percent Hydrocodone released ([3]; pH 1, 15 minutes, relative to zero hour level): 18%
- Percent Hydrocodone released ([3]; pH 1, 60 minutes, relative to zero hour level): 27.8%
- Percent Hydrocodone released ([3]; pH 4, 5 minutes, relative to zero hour level): 11%
- Percent Hydrocodone released ([3]; pH 4, 15 minutes, relative to zero hour level): 12.6%
- Percent Hydrocodone released ([3]; pH 4, 60 minutes, relative to zero hour level): 19.6%
- Percent Hydrocodone released ([3]; pH 7, 5 minutes, relative to zero hour level): 12%
- Percent Hydrocodone released ([3]; pH 7, 15 minutes, relative to zero hour level): 16%
- Percent Hydrocodone released ([3]; pH 7, 60 minutes, relative to zero hour level): 23.4%
- Percent Hydrocodone released ([3]; pH 9, 5 minutes, relative to zero hour level): 9%
- Percent Hydrocodone released ([3]; pH 9, 15 minutes, relative to zero hour level): 11%
- Percent Hydrocodone released ([3]; pH 9, 60 minutes, relative to zero hour level): 21%
- hydrocodone released from the conjugate ([3]; pH 12): less than half
- Percent Hydrocodone released ([3]; pH 12, 5 minutes, relative to zero hour level): 44%
- Percent Hydrocodone released ([3]; pH 12, 15 minutes, relative to zero hour level): 33%
- Percent Hydrocodone released ([3]; pH 12, 60 minutes, relative to zero hour level): 41.1%
- amount of hydrocodone released ([3]; pHs other than pH 12, after one hour at 90° C.): ≤ 27.8%
- Bioavailability compared to Hydrocodone-Bitartarate [4]: decreased
- Bioavailability compared to Hydrocodone-Bitartarate [5]: decreased
- clearance rate [5]: increased clearance rate
- Bioavailability compared to Hydrocodone-Bitartarate [6]: approximately equal
